Here are results for 74 molecules from US7547804B2, “Compounds, compositions, and methods employing same” (Myriad Genetics, Inc., priority 2002, dated 2009).

Each structure is given as a SMILES string.

The subject of the first assay is LNCaP cell lines. Nature of the assay: WST-1 Cell Proliferation and Viability Assay. The following applies: Homo sapiens; LNCaP cells, compound incubation 18-72 hours. It is filed as cell-based. Put shortly:
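LNCaP cells (5000/well, phenol-red-free RPMI-1640 with 10% FCS) were plated overnight, then exposed to compounds in 0.1% DMSO final for 18-72 hours at 37 °C. Viability was read by WST-1 conversion to formazan after 3 h further incubation, measured at A490-A650.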
Consider `O=C(Nc1cc(C(F)(F)F)ccc1N1CCN(c2ccccc2)CC1)c1cc(Cl)ccc1O` [Compound 272], for which a half-maximal effect (EC50) was put at 0.9 µM. Same read-out and setting: with `COc1ccccc1CCNc1ccc(C(F)(F)F)cc1NC(=O)c1cc(Cl)ccc1O` [Compound 274] the figure was 4 µM; with `O=C(Nc1cc(C(F)(F)F)ccc1NCC(c1ccccc1)c1ccccc1)c1cc(Cl)ccc1O` [Compound 275], 3 µM; with `O=C(Nc1cc(C(F)(F)F)ccc1NCCc1ccccc1Cl)c1cc(Cl)ccc1O` [Compound 276], 4 µM. Still for that read-out and setting: with `O=C(Nc1cc(C(F)(F)F)ccc1NCc1cccc2ccccc12)c1cc(Cl)ccc1O` [Compound 277] the figure was 3 µM; with `O=C(Nc1cc(COCc2ccccc2)ccc1Cl)c1cc(Cl)ccc1O` [Compound 279], 6 µM. As for `O=C(Nc1cc(C(F)(F)F)ccc1OC1CCCCC1c1ccccc1)c1cc(Cl)ccc1O` (centres unmarked) [Compound 280], the concentration giving a half-maximal response (EC50) (as a rule, the concentration needed to bring the measured effect to its halfway point) was 1 µM.

`O=C(Nc1cc(OC2CCCCC2c2ccccc2)ccc1Cl)c1cc(Cl)ccc1O` (centres unmarked) [Compound 281] showed a 50% effective concentration (EC50) of 3 µM. On the same count and under the same terms, with `O=C(Nc1cccc(OC2CCCCC2c2ccc(Cl)cc2)c1)c1cc(Cl)ccc1O` (centres unmarked) [Compound 282] the figure was 4 µM. The molecule `CC(C)C(COc1ccc(C(F)(F)F)cc1NC(=O)c1cc(Cl)ccc1O)c1ccc(Cl)cc1` (centres unmarked) [Compound 283] displayed an EC50 of 0.9 µM. The molecule `O=C(Nc1cc(Cl)ccc1OCCc1cccc(OC(F)(F)F)c1)c1cc(Cl)ccc1O` [Compound 284] gave an EC50 of 2 µM. The same measure, in the same setting: with `O=C(Nc1cc(C(F)(F)F)ccc1OCCc1cccc(OC(F)(F)F)c1)c1cc(Cl)ccc1O` [Compound 285] the figure was 0.9 µM. On the same count and under the same terms, with `CS(=O)(=O)c1ccc(CCOc2ccc(Cl)cc2NC(=O)c2cc(Cl)ccc2O)cc1` [Compound 286] the figure was 10 µM; with `CS(=O)(=O)c1ccc(CCOc2ccc(C(F)(F)F)cc2NC(=O)c2cc(Cl)ccc2O)cc1` [Compound 287], 3.1 µM; with `O=C(Nc1cc(Cl)ccc1OCCC1CC1)c1cc(Cl)ccc1O` [Compound 288], 3.3 µM.

As for `O=C(Nc1cc(Cl)ccc1OCc1ccccc1)c1cc(Cl)ccc1O` [Compound 289], the EC50 was 3.3 µM. On the same count and under the same terms, next, `O=C(Nc1cc(Cl)ccc1OCCc1ccccc1)c1cc(Cl)cc([N+](=O)[O-])c1O` [Compound 294]: 19 µM; `CCOCCOc1ccc(C(F)(F)F)cc1NC(=O)c1cc(Cl)ccc1O` [Compound 295]: 1 µM.

Molecule `CC(C)OCCOc1ccc(C(F)(F)F)cc1NC(=O)c1cc(Cl)ccc1O` [Compound 296] had an EC50 of 0.8 µM. Still for that read-out and setting: with `O=C(Nc1cc(C(F)(F)F)ccc1OCCOc1ccccc1)c1cc(Cl)ccc1O` [Compound 297] the figure was 0.9 µM; with `CCOCCOCCOc1ccc(C(F)(F)F)cc1NC(=O)c1cc(Cl)ccc1O` [Compound 298], 3 µM. The same measure, in the same setting: next, `O=C(Nc1cc(C(F)(F)F)ccc1OCCOCCCl)c1cc(Cl)ccc1O` [Compound 299]: 1 µM; `O=C(Nc1cc(C(F)(F)F)ccc1OCCOc1ccc(Cl)cc1)c1cc(Cl)ccc1O` [Compound 300]: 1 µM. Still for that read-out and setting: next, `CCCOCCOc1ccc(C(F)(F)F)cc1NC(=O)c1cc(Cl)ccc1O` [Compound 301]: 0.67 µM; `COC(=O)C=Cc1ccccc1CCOc1ccc(Cl)cc1NC(=O)c1cc(Cl)ccc1O` [Compound 302]: 3 µM; `COC(=O)CCc1ccccc1CCOc1ccc(Cl)cc1NC(=O)c1cc(Cl)ccc1O` [Compound 303]: 3.3 µM. As to `O=C(NCc1cccc(-c2cccc(C(F)(F)F)c2)c1)c1cc(Cl)ccc1O` [Compound 304], the concentration giving a half-maximal response (EC50) was 18 µM. `Cc1ccc(COc2ccc(Cl)cc2NC(=O)c2cc(Cl)ccc2O)cc1` [Compound 306] registered a half-maximal effective concentration (EC50) of 2 µM. Still for that read-out and setting: next, `Cc1cccc(COc2ccc(C(F)(F)F)cc2NC(=O)c2cc(Cl)ccc2O)c1` [Compound 307]: 1.8 µM. Take `COC(=O)c1ccc(COc2ccc(C(F)(F)F)cc2NC(=O)c2cc(Cl)ccc2O)cc1` [Compound 308]: the response was half-maximal at 0.83 µM (EC50). Same read-out and setting: with `CN1CCN(c2ccc(C(F)(F)F)cc2NC(=O)c2cc(Cl)ccc2O)CC1` [Compound 309] the figure was 17.4 µM. The same measure, in the same setting: with `Cc1cccc(COc2ccc(Cl)cc2NC(=O)c2cc(Cl)ccc2O)c1` [Compound 311] the figure was 3 µM; with `Cc1ccccc1COc1ccc(C(F)(F)F)cc1NC(=O)c1cc(Cl)ccc1O` [Compound 312], 0.85 µM; with `Cc1ccccc1COc1ccc(Cl)cc1NC(=O)c1cc(Cl)ccc1O` [Compound 313], 3 µM. The molecule `COC(=O)C1CCCN(c2ccc(C(F)(F)F)cc2NC(=O)c2cc(Cl)ccc2O)C1` (centres unmarked) [Compound 315] registered an EC50 of 1.2 µM. The molecule `O=C(NCc1ccc(F)c(C(F)(F)F)c1)c1cc(Cl)ccc1O` [Compound 319] yielded a 50% effective concentration (EC50) of 17.7 µM. The same measure, in the same setting: next, `O=C(NCc1cc(F)cc(C(F)(F)F)c1)c1cc(Cl)ccc1O` [Compound 320]: 17.5 µM; `COC(=O)c1ccc(OCCc2ccccc2)c(NC(=O)c2cc(Cl)ccc2O)c1` [Compound 325]: 3.3 µM.

In turn, `COC(=O)CCc1ccc(OCCc2ccccc2)c(NC(=O)c2cc(Cl)ccc2O)c1` [Compound 326] returned a 50% effective concentration (EC50) of 6.2 µM. Still for that read-out and setting: with `O=C(Nc1cc(C(F)(F)F)ccc1OCc1cccc(C(F)(F)F)c1)c1cc(Cl)ccc1O` [Compound 327] the figure was 2.1 µM; with `O=C(Nc1cc(Cl)ccc1OCc1ccc(C(F)(F)F)cc1)c1cc(Cl)ccc1O` [Compound 328], 1.6 µM.

With `O=C(Nc1cc(Cl)ccc1OCc1cccc(C(F)(F)F)c1)c1cc(Cl)ccc1O` [Compound 329], a half-maximal effect (EC50) was put at 2.2 µM.

In turn, `Nc1cc(Cl)cc(C(=O)Nc2cc(Cl)ccc2OCCc2ccccc2)c1O` [Compound 330] gave a concentration giving a half-maximal response (EC50) of 19.7 µM. Molecule `O=CNc1cc(Cl)cc(C(=O)Nc2cc(Cl)ccc2OCCc2ccccc2)c1O` [Compound 331] gave a 50% effective concentration (EC50) of 12.4 µM. On the same count and under the same terms, with `Cc1ccc(COc2ccc(C(F)(F)F)cc2NC(=O)c2cc(Cl)ccc2O)cc1` [Compound 332] the figure was 0.74 µM; with `Cc1ccc(OCCc2cccc(C(F)(F)F)c2)cc1NC(=O)c1cc(Cl)ccc1O` [Compound 333], 2.6 µM; with `O=C(Nc1cc(C(F)(F)F)ccc1OCc1cccc(OC(F)(F)F)c1)c1cc(Cl)ccc1O` [Compound 334], 9 µM. `COc1ccccc1CCOc1cccc(NC(=O)c2cc(-c3ccsc3)ccc2O)c1` [Compound 335] returned a concentration giving a half-maximal response (EC50) of 13 µM.

`COc1ccccc1CCOc1cccc(NC(=O)c2cc(Cl)cc([N+](=O)[O-])c2O)c1` [Compound 336] had an EC50 of 28 µM.

Regarding `COc1ccccc1CCOc1cccc(NC(=O)c2cc(Cl)ccc2NS(C)(=O)=O)c1` [Compound 337], the 50% effective concentration (EC50) is 19 µM.

With `COc1ccccc1CCOc1cccc(NC(=O)c2cc(-c3cccc4ccccc34)ccc2O)c1` [Compound 338], a half-maximal response (EC50) required 7 µM. The same measure, in the same setting: with `COc1ccccc1CCOc1cccc(NC(=O)c2cc(-c3cc4ccccc4o3)ccc2O)c1` [Compound 339] the figure was 8 µM. On the same count and under the same terms, next, `COc1ccccc1CCOc1cccc(NC(=O)c2cc(-c3ccc(C)cc3)ccc2O)c1` [Compound 340]: 16 µM; `COc1ccccc1CCOc1cccc(NC(=O)c2cc(-c3ccc(Cl)c(Cl)c3)ccc2O)c1` [Compound 341]: 9 µM. On the same count and under the same terms, next, `COc1ccc(-c2ccc(O)c(C(=O)Nc3cccc(OCCc4ccccc4OC)c3)c2)cc1` [Compound 342]: 10 µM; `COc1ccccc1CCOc1cccc(NC(=O)c2cc(-c3ccccc3OC)ccc2O)c1` [Compound 343]: 17 µM.

`COc1ccccc1CCOc1cccc(NC(=O)c2cc(-c3ccccc3Oc3ccccc3)ccc2O)c1` [Compound 344] had an EC50 of 16 µM.

The molecule `COc1ccccc1CCOc1cccc(NC(=O)c2cc(-c3cccc(C(C)C)c3)ccc2O)c1` [Compound 345] registered an EC50 of 9 µM. The same measure, in the same setting: next, `COc1ccccc1CCOc1cccc(NC(=O)c2cc(Br)cc(F)c2O)c1` [Compound 346]: 28 µM; `COc1ccccc1CCOc1cccc(NC(=O)c2cc(-c3ccc4ccccc4c3)ccc2O)c1` [Compound 347]: 6 µM.

In turn, `COc1ccccc1CCOc1cccc(NC(=O)c2cc(-c3ccc4c(c3)OCO4)ccc2O)c1` [Compound 348] yielded an EC50 of 17 µM. Same read-out and setting: next, `COc1ccccc1CCOc1cccc(NC(=O)c2cc(-c3cccc(Cl)c3)ccc2O)c1` [Compound 349]: 10 µM. Same read-out and setting: next, `COc1ccccc1CCOc1cccc(NC(=O)c2cc(-c3ccccc3Cl)ccc2O)c1` [Compound 350]: 10 µM; `COc1ccccc1CCOc1cccc(NC(=O)c2cc(-c3ccc(Cl)cc3)ccc2O)c1` [Compound 351]: 11 µM; `COc1ccccc1CCOc1cccc(NC(=O)c2cc(-c3cccc(C(F)(F)F)c3)ccc2O)c1` [Compound 352]: 7 µM.

Staying with this assay, now noted: Homo sapiens; LNCaP cells; flagged "Estimated": based on actual data at different concentrations.
On to `O=C(Nc1cc(C(F)(F)F)ccc1OCC(F)(F)F)c1cc(Cl)ccc1O` [Compound 278], for which the half-maximal effective concentration (EC50) is 2 µM.

As for `O=C(NCc1ccc(Cl)c(C(F)(F)F)c1)c1cc(Cl)ccc1O` [Compound 290], the 50% effective concentration (EC50) was 30 µM.

Consider `Cc1ccc(CNC(=O)c2cc(Cl)ccc2O)cc1-c1ccccc1` [Compound 291], for which the 50% effective concentration (EC50) is 30 µM. Turning to `O=C(NCc1ccc(Cl)c(-c2ccccc2)c1)c1cc(Cl)ccc1O` [Compound 292], the EC50 was 30 µM. For `O=C(NCc1cc(-c2ccccc2)ccc1Cl)c1cc(Cl)ccc1O` [Compound 293], the EC50 is 30 µM. On the same count and under the same terms, with `O=C(Nc1cc(C(F)(F)F)ccc1N1CCCC(C(=O)O)C1)c1cc(Cl)ccc1O` (centres unmarked) [Compound 316] the figure was 40 µM; with `COc1cccc(-c2cccc(CNC(=O)c3cc(Cl)ccc3O)c2)c1` [Compound 317], 30 µM; with `O=C(NCc1cc(C(F)(F)F)ccc1Cl)c1cc(Cl)ccc1O` [Compound 318], 40 µM.

Regarding `Cc1cc(C)cc(CNC(=O)c2cc(Cl)ccc2O)c1` [Compound 323], the EC50 was 30 µM.
